Experimental data from publication PMC8123576 (International Journal of Molecular Sciences, 2021).

Assays:
[1] = Cytotoxicity assay (CellTiter 96 AQueous One) on Hs27; format: cell-based, human; settings: human, Hs27 normal skin cells, Hs27, 24 h, dose 0 = 100.00, read-out: Growth inhibition data
Protocol: (§1) The best antifungal and/or antiaflatoxigenic compounds were tested to determine their cytotoxic activity against human normal cell lines deriving from lung (HFL1, ATCC and CCL-153), skin (Hs27, ATCC, CRL1634) and colon (Crl1790, ATCC, CCD 841 CoN) and a cell line deriving from a hematological tumor (U937, ATCC and CRL-3253). These different cell lines have been chosen to simulate the different human exposition routes to pesticide. Cell culture conditions have been previously reported. Compound cytotoxicity was determined using CellTiter 96® AQueous One Solution Cell Proliferation Assay (Promega Corporation, Madison, WI, USA). The very detailed protocol was described by Bartoli et al.. In brief, cells were seeded in a 96-well plate at a density of 5000 cells/well and after 24 h cells were treated with different concentrations of the compounds (0.5–1–5–10–50–100 µM). After the treatment period (24 h), the CellTiter Reagent was added to each well (20 µL/well) and the plate incubated for 4 h at 37 °C. The plate was then read at 485 nm in a multiwell plate reader (TECAN SpectraFluor Plus, Männedorf, Switzerland).

Hs27 cells = test: as above; format: cell-based, human; settings: Hs27 cells, 24 h treatment
Protocol: as §1

A. cepa = A. cepa toxicity test (root length); format: in vivo, Allium cepa; settings: for Roots Length: NC 2.07 ± 0.61
Protocol: A. cepa toxicity test: Twelve equal-sized young onion bulbs were exposed for 96 h in the dark to different concentrations of compounds dissolved in DMSO, changing the sample solution every day. […] Root macroscopic parameters such as turgescence, consistency, change in color and root tip shape, were used as toxicity indexes.

[2] = system: S. typhimurium TA98 and TA100 strains; test: Ames test, overall mutagenicity verdict in bacteria; settings: TA98 and TA100, -S9 and +S9

## CC(=NNC(N)=S)c1cccs1 [2-actpTS, 2-acetylthiophenethiosemicarbazone]
[1]; 0.5 µM
  viability at 24 h, 0.5 µM: 99.9 ± 7.65%
[1]; 1 µM
  viability at 24 h, 1 µM: 97 ± 4.78%
[1]; 5 µM
  viability at 24 h, 5 µM: 100 ± 5.97%
[1]; 10 µM
  viability at 24 h, 10 µM: 97.7 ± 3.73%
[1]; 50 µM
  viability at 24 h, 50 µM: 100 ± 9.25%
[1]; 100 µM
  viability at 24 h, 100 µM: 87.3 ± 8.07%
Hs27 cells
  cytotoxic effect: did not show cytotoxic effect
A. cepa; 10 µM
  Roots Length: 2.17 ± 0.53 cm
A. cepa; 25 µM
  Roots Length: 1.65 ± 0.43 cm
A. cepa; 50 µM
  Roots Length: 1.68 ± 0.39 cm
A. cepa; 100 µM
  Roots Length: 1.07 ± 0.23 cm
A. cepa; Allium cepa, read-out: EC50 (50% A. cepa root growth inhibition), 96 h exposure
  EC50: ~100 µM
[2]
  mutagenicity in bacteria: no mutagenicity at any of the concentrations tested
